Test results reported in patent US8421457B2, “Methods and systems for magnetically resonating both a subject and a substance administered to the subject” (Applied Magnetics, LLC, priority 2008, dated 2013).

Legend:
osteoarthritis patients = settings: for results of continuing treatment / stiffness in hand, before treatment / pain in thumb, before treatment: person, taking the drugs; for results of continuing treatment: back pain (degenerative disk disease, sciatica), resonated approx. three times per week for more than one year; for stiffness in hand, before treatment / pain in thumb, before treatment: osteoarthritis, before MR; for stiffness in hand, before treatment: scale zero (feels great) to ten (feels terrible)
Excerpt: In one example, a person suffered from back pain due to degenerative disk disease in their low back and sciatica. […] The subject was resonated approximately three times per week for more than one year.
In another example, a person experienced arthritis pain in a number of joints, including their hips, hands, and shoulders. The subject also suffered from sciatica in their hips and legs. The subject was taking Celebrex. The subject was resonated at least three times per week for one to two hours per session.
In a further example, a person experienced osteoarthritis pain and stiffness in their hands and finger joints. […] The subject was resonated twice for one-half hour per treatment. The subject was asked to rate their pain on a scale of zero (feels great) to ten (feels terrible) before and after treatment.
Alternatively, an amplitude of about 0.01 μG to about 0.46 μG, with a frequency of about 0.2799 Hz to about 12.8765 Hz may be used.

subject with back pain = assay: Case reports: low back pain, drugs combined with MR treatment; format: in vivo, human; settings: person, taking the drugs; for decrease in pain level and stiffness level: four one-hour MR treatments over eleven days; for decrease in stiffness level: one MR treatment of one hour
Excerpt: In one example, a person experienced pain and stiffness associated with their low back. The subject was taking Aspirin and Ibuprofen. Over the course of ten days, the subject received three treatments. The result was a decrease in pain level of 50-100%.
In another example, a person experienced pain and stiffness associated with their low back. The subject was taking Aspirin and Ibuprofen. Over the course of eleven days, the subject received four treatments, each lasting one hour. The result was a decrease in pain level and stiffness level of 75%.
In another example, a person experienced pain and stiffness associated with their low back. The subject was taking Aspirin and Ibuprofen. The subject received one treatment, lasting one hour. The result was a decrease in pain level of 60-70% and stiffness level of 90%.
In providing MR treatment to a subject with back pain, an amplitude of about 0.01 μG to about 0.457 μG, with a frequency of about 0.2799 Hz to about 12.8 Hz may be used.

[1] = system: migraine and headache patients; assay: Case reports: migraine and headache drugs combined with MR treatment; format: in vivo, human
Protocol: The subject was resonated ten times for 1 to 1.5 hours per treatment over a one-month period.
In another example, a person experienced pain associated with migraines. […] The subject received two one-hour treatments three months apart.
In a further example, a person experienced pain associated with severe headaches. The subject took Aspirin to treat the pain. The subject received one treatment for one hour.

injured patients = assay: Case reports: injuries, drugs combined with MR treatment; format: in vivo, human; settings: person, taking the drugs; for elimination of pain and stiffness: injured right knee (old Meniscus tear), 3 MR treatments of 1 hour over 5 days
Excerpt: In another example, a person experienced pain and stiffness associated with a shoulder injury. The subject was taking Aspirin and Ibuprofin. The subject received two one-hour treatments three days apart. The result was a decrease in pain level of 50% and a decrease in stiffness of 50%.
In a further example, a person experienced pain and stiffness associated with an injured knee. The subject was taking Aspirin and Ibuprofin. Over the course of 5 days, the subject received 3 treatments, each lasting 1.5 hours. The result was a decrease in pain level of 50-100% and a decrease in stiffness of 50%.
In a further example, a person experienced pain and stiffness associated with an injured right knee that was the result of an old Meniscus tear injury. The subject was taking Aspirin and Ibuprofin. Over the course of 5 days, the subject received 3 treatments, each lasting 1 hour. The result was a 100% elimination of their pain an stiffness.
In another example, a person experienced pain and stiffness associated with an injured left knee. The subject was taking Aspirin and Ibuprofin. Over the course of three days, the subject received two treatments, each lasting one hour. The result was a decrease in pain level of 75% and a decrease in stiffness of 50%.
In providing MR treatment to a subject with pain and/or one or more injuries, an amplitude of about 0.01 μG to about 0.5 μG, with a frequency of about 0.2799 Hz to about 14.0 Hz may be used.

[2] = system: patients with high cholesterol; assay: Case report: cholesterol drug combined with MR treatment; format: in vivo, human; settings: person taking Lipitor; three MR treatments per week for twenty months
Protocol: In one example, a person was taking the drug Lipitor to manage their cholesterol levels. The subject began a series of three treatments per week for twenty months, and continuing on an ongoing basis. […] In order to provide MR treatment for cholesterol, the MR device settings may range from an amplitude from about 0.4998 μG to about 0.075 μG and a frequency from about 2.1 Hz to about 13.9996 Hz, or ranges within these ranges.

[3] = system: diabetic peripheral neuropathy patients; assay: Case report: diabetic neuropathy drugs combined with MR treatment; format: in vivo, human; settings: diabetic neuropathy in both feet, taking the drugs; resonated four times for one hour each
Excerpt: In one subject, a person suffered with diabetic neuropathy in both feet. […] The subject was taking the drugs Actos, Metaformin, and Lisinopril. The subject was resonated four times for one hour each time. […] As of fifteen months after the last treatment session, the sensation remained. Also, the subjects from Example 5 reported improvements with respect to symptoms relating to diabetic neuropathy (e.g., lack of sensation and pain).
In providing MR treatment to a subject with diabetic neuropathy, an amplitude of about 0.455 μG to about 0.53 μG, with a frequency of about 12.7 Hz to about 14.84 Hz may be used.

fibromyalgia patients = assay: Case reports: fibromyalgia, drugs combined with MR treatment; format: in vivo, human; settings: same subject; thirteen MR treatments within a two-month period
Protocol: In one example, a person experienced fibromyalgia for a number of years. The subject also experienced insomnia, restless legs, and chronic fatigue. The subject took the drug Naproxen (Aleve). The subject received seven consecutive days of 1 to 1.5 hour treatments.
Their primary complaint was back pain. […] The subject received thirteen treatments within a two-month period. […] Approximately two months after completing their first series of treatment, they began a second regimen of ten treatments within a two-month period.
In a further example, a person at least fifty years old suffered from fibromyalgia for a number of years. […] The subject received daily (when possible) treatments for approximately one year.

cancer patients = settings: in vivo
Protocol: In one example, carboplaton and taxol are cancer drugs for treating cancer, including ovarian cancer.
For this protocol, the MR device settings may be, for example, amplitude=about 0.017 μG to about 0.3 μG, frequency=about 0.3 Hz to about 9.6 Hz, waveform=sine or square, and MR treatment duration=about 80 minutes.

[4] = same subject, after being resonated twice for one-half hour per treatment, scale zero to ten
[5] = injured knee, 3 MR treatments of 1.5 hours over 5 days
[6] = injured left knee, two one-hour MR treatments over three days
[7] = shoulder injury, two one-hour MR treatments three days apart

## CC(=O)Oc1ccccc1C(=O)O [Aspirin]
Osteoarthritis patients
  results of continuing treatment: significantly less pain, an improved range of motion, and improved sleep
  stiffness in hand, before treatment: two
Osteoarthritis patients; scale zero to ten
  pain in thumb, before treatment: three
Osteoarthritis patients; [4]
  pain in thumb, after treatment: zero
  stiffness in hand, after treatment: zero
Subject with back pain
  decrease in pain level and stiffness level: 75%
  decrease in stiffness level: 90%
[1]; person, severe headaches, taking Aspirin, before MR
  pain before treatment: 6.5
[1]; same subject, after one MR treatment for one hour
  pain after treatment: zero
Injured patients; [5]
  decrease in stiffness: 50%
Injured patients; [6]
  decrease in pain level: 75%
  decrease in stiffness: 50%
Injured patients
  elimination of pain and stiffness: 100%
Injured patients; [7]
  decrease in pain level: 50%
  decrease in stiffness: 50%

## CC(C)c1c(C(=O)Nc2ccccc2)c(-c2ccccc2)c(-c2ccc(F)cc2)n1CC[C@@H](O)C[C@@H](O)CC(=O)O [Lipitor]
[2]
  cholesterol levels: at the best ratio in twenty years

## NCCCC[C@H](N[C@@H](CCc1ccccc1)C(=O)O)C(=O)N1CCC[C@H]1C(=O)O [Lisinopril]
[3]
  result of treatment on sensation in feet: sensation returned for touch, texture, and temperature
Fibromyalgia patients
  pain level after treatment, first series: 0.5

## CN(C)C(=N)NC(=N)N [Metaformin]
[3]
  result of treatment on sensation in feet: sensation returned for touch, texture, and temperature

## CCc1ccc(CCOc2ccc(CC3SC(=O)NC3=O)cc2)nc1 (stereo not drawn) [Actos]
[3]
  result of treatment on sensation in feet: sensation returned for touch, texture, and temperature

## CC(C)Cc1ccc(C(C)C(=O)O)cc1 (stereo not drawn) [Ibuprofin]
Osteoarthritis patients
  results of continuing treatment: significantly less pain, an improved range of motion, and improved sleep
  stiffness in hand, before treatment: two
Osteoarthritis patients; scale zero to ten
  pain in thumb, before treatment: three
Subject with back pain
  decrease in pain level and stiffness level: 75%
  decrease in stiffness level: 90%
[1]; person with migraines taking the drugs, resonated ten times, 1 to 1.5 hours, over one month
  results on migraines: decreased frequency and duration of migraines
[1]; person with migraines taking the drugs, scale of zero to ten
  pain level before being resonated: nine
[1]; person with migraines taking the drugs, two one-hour MR treatments three months apart
  reduction in pain level: 50%
[1]; same subject, after ten MR treatments over one month, scale of zero to ten
  pain level after treatment: two
Injured patients; [5]
  decrease in stiffness: 50%
Injured patients; [6]
  decrease in pain level: 75%
  decrease in stiffness: 50%
Injured patients
  elimination of pain and stiffness: 100%
Injured patients; [7]
  decrease in pain level: 50%
  decrease in stiffness: 50%

## N.N.O=C([O-])C1(C(=O)[O-])CCC1.[Pt+2] [carboplaton]
Cancer patients
  reported effects after taking the cancer drugs: increased lethargy and decreased energy and motivation
